The text below walks through data of patent US20100004250A1, “PTERIDINE DERIVATIVES AS POLO-LIKE KINASE INHIBITORS USEFUL IN THE TREATMENT OF CANCER” (CHROMA THERAPEUTICS LTD., priority 2006, published 2010).

pIC50: −log10 of the molar value.

Experiment [1] addresses T1, PLK1 (Homo sapiens, UniProt P53350).
T1 construct: purchased Invitrogen (Paisley, UK), assay service
In words: PLK1 enzyme assay (Z'-LYTE, Invitrogen). The class given is biochemical. As to conditions: ATP at or close to Km, 60 minute kinase reaction; read-out: Inhibitor Activity vs PLK1. The protocol:
The ability of compounds to inhibit PLK-1 kinase activity was measured in an assay performed by Invitrogen (Paisley, UK). The Z′-LYTE™ biochemical assay employs a fluorescence-based, coupled-enzyme format and is based on the differential sensitivity of phosphorylated and non-phosphorylated peptides to proteolytic cleavage. The peptide substrate is labelled with two fluorophores—one at each end—that make up a FRET pair. In the primary reaction, the kinase transfers the gamma-phosphate of ATP to a single serine or threonine residue in a synthetic FRET-peptide. In the secondary reaction, a site-specific protease recognizes and cleaves non-phosphorylated FRET-peptides. Phosphorylation of FRET-peptides suppresses cleavage by the Development Reagent. Cleavage disrupts FRET between the donor (i.e., coumarin) and acceptor (i.e., fluorescein) fluorophores on the FRET-peptide, whereas uncleaved, phosphorylated FRET-peptides maintain FRET. A […] method, which calculates the ratio (the Emission Ratio) of donor emission to acceptor emission after excitation of the donor fluorophore at 400 nm, is used to quantitate reaction progress.
The final 10 μl Kinase Reaction consists of 2.8-25.3 ng PLK1, 2 μM Ser/Thr 16 Peptide substrate and ATP in 50 mM HEPES pH 7.5, 0.01% BRIJ-35, 10 mM MgCl2, 1 mM EGTA. The assay is performed at an ATP concentration at, or close to, the Km. After the 60 minute Kinase Reaction incubation at room temperature, 5 μl of a 1:8 dilution of Development Reagent is added. The assay plate is incubated for a further 60 minutes at room temperature and read on a fluorescence plate reader.
Duplicate data points are generated from a ⅓ log dilution series of a stock solution of test compound in DMSO. Nine dilutions steps are made from a top concentration of 10 μM, and a “no compound” blank is included. Data is collected and analysed using XLfit software from IDBS. The dose response curve is curve fitted to model number 205 (sigmoidal dose-response model). From the curve generated, the concentration giving 50% inhibition is determined and reported.

Experiment [2] concerns HCT 116 cell line. The experiment in a line: Cell inhibition assay (WST-1 proliferation). The class given is cell-based. As to conditions: Homo sapiens, 120 hrs incubation, read-out: Inhibitor Activity vs HCT 116 cell line. The protocol:
Cells were seeded in 96W tissue culture plates (1 well=30 mm^2) at a density of 500 cells per well in 50 μl of the appropriate culture medium (see below). 24 hrs later 50 μl of the compound prepared in the same medium was added as 4 fold dilutions to give final concentrations in the range 0.15 nM-2500 nM (n=6 for each concentration). The plates were then incubated at 37° C., 5% CO2 for 120 hrs. Cell proliferation was assessed using WST-1 (a metabolic indicator dye, Roche Cat no. 1 644 807) according to the manufacturers instructions. The results were calculated as percentage of vehicle response and IC50 values represent the concentration of compound that inhibited the vehicle response by 50%.
HCT-116 Culture Medium—Dulbeccos MEM (Sigma D6546) plus 10% heat inactivated fetal calf serum (Hyclone SH30071 Thermo Fischer Scientific) containing 2 mM Glutamine (Sigma cat no G-7513) and 50 U/ml Penicillin and Streptomycin Sulphate (Sigma Cat no P-0781).

T1 sequence (P53350 whole entry): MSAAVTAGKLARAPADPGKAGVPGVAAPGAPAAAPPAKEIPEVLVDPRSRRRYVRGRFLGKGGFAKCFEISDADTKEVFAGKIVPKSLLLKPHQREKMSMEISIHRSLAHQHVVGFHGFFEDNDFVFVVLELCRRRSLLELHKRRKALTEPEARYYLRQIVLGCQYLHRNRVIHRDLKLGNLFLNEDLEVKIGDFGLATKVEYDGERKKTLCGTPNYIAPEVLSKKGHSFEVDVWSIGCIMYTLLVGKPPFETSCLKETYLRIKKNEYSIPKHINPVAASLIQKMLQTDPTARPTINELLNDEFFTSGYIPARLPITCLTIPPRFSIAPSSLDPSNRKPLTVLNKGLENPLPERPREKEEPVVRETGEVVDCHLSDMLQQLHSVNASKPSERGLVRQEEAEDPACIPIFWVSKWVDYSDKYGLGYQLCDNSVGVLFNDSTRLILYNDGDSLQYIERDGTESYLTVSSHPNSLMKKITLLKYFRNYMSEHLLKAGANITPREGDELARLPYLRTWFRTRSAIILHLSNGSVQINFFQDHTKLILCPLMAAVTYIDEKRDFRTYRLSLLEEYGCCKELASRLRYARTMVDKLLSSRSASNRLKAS

As to `CC[C@@H]1C(=O)N(C)c2cnc(Nc3ccc(C(=O)NC4CCN(CCCC(=O)N[C@H](CC(C)C)C(=O)O)CC4)cc3OC)nc2N1C1CCCC1` [Example 19, N-(4-{4-[(4-{[(7R)-8-Cyclopentyl-7-ethyl-5-methyl-6-oxo-5,6,7,8-tetrahydropteridin-2-yl]amino}-3-methoxybenzoyl)amino]Piperidin-1-yl}butanoyl)-D-leucine], the pIC50 in experiment [1] was over 7.00.
Still for that read-out and setting: then `CC[C@@H]1C(=O)N(C)c2cnc(Nc3ccc(C(=O)NC4CCN(CCCC(=O)N[C@H](C(=O)O)c5ccccc5)CC4)cc3OC)nc2N1C1CCCC1` [Example 20, (2S)-[(4-{4-[(4-{[(7R)-8-Cyclopentyl-7-ethyl-5-methyl-6-oxo-5,6,7,8-tetrahydropteridin-2-yl]amino}-3-methoxybenzoyl)amino]piperidin-1-yl}butanoyl)amino](phenyl)acetic acid], with over 7.00.
For `CC[C@@H]1C(=O)N(C)c2cnc(Nc3ccc(CCCCCC(=O)N[C@@H](CC(C)C)C(=O)OC4CCCC4)cc3F)nc2N1C1CCCC1` [Example 15, Cyclopentyl N-[6-(4-{[(7R)-8-cyclopentyl-7-ethyl-5-methyl-6-oxo-5,6,7,8-tetrahydropteridin-2-yl]amino}-3-fluorophenyl)hexanoyl]-L-leucinate], the pIC50 in experiment [1] and in experiment [2] was under 6.30 throughout.
On to `CC[C@@H]1C(=O)N(C)c2cnc(Nc3ccc(C(=O)NC4CCN(CCOC(=O)N[C@@H](CC(C)C)C(=O)OC5CCCC5)CC4)cc3OC)nc2N1C1CCCC1` [Example 11, Cyclopentyl N-[(2-{4-[(4-{[(7R)-8-cyclopentyl-7-ethyl-5-methyl-6-oxo-5,6,7,8-tetrahydropteridin-2-yl]amino}-3-methoxybenzoyl)amino]piperidin-1-yl}ethoxy)carbonyl]-L-leucinate], for which the pIC50 in experiment [1] and in experiment [2] was over 7.00 throughout.
Consider `CC[C@@H]1C(=O)N(C)c2cnc(Nc3ccc(C(=O)NC4CCN(CCCC(=O)N[C@@H](CC(C)C)C(=O)OC5CCCC5)CC4)cc3OC)nc2N1C1CCCC1` [Example 1, Cyclopentyl N-(4-{4-[(4-{[(7R)-8-cyclopentyl-7-ethyl-5-methyl-6-oxo-5,6,7,8-tetrahydropteridin-2-yl]amino}-3-methoxybenzoyl)amino]piperidin-1-yl}butanoyl)-L-leucinate], for which the pIC50 in experiment [1] and in experiment [2] was over 7.00 each time.
On to `CC[C@@H]1C(=O)N(C)c2cnc(Nc3ccc(C(=O)NC4CCN(CCNC(=O)N[C@@H](CC(C)C)C(=O)OC5CCCC5)CC4)cc3OC)nc2N1C1CCCC1` [Example 8, Cyclopentyl N-[(2-{4-[(4-{[(7R)-8-cyclopentyl-7-ethyl-5-methyl-6-oxo-5,6,7,8-tetrahydropteridin-2-yl]amino}-3-methoxybenzoyl)amino]piperidin-1-yl}ethyl)carbamoyl]-L-leucinate], for which the pIC50 in experiment [1] and in experiment [2] was over 7.00 throughout.
On to `CC[C@@H]1C(=O)N(C)c2cnc(Nc3ccc(C(=O)NC4CCN(CCNC(=O)N[C@H](C(=O)O)C5CCCCC5)CC4)cc3OC)nc2N1C1CCCC1` [Example 25, (2S)-Cyclohexyl{[(2-{4-[(4-{[(7R)-8-cyclopentyl-7-ethyl-5-methyl-6-oxo-5,6,7,8-tetrahydropteridin-2-yl]amino}-3-methoxybenzoyl)amino]piperidin-1-yl}ethyl)carbamoyl]amino}acetic acid], for which the pIC50 in experiment [1] was over 7.00.
Still for that read-out and setting: then `CC[C@@H]1C(=O)N(C)c2cnc(Nc3ccc(C(=O)Nc4ccc(CCCC(=O)N[C@@H](CC(C)C)C(=O)O)cc4)cc3OC)nc2N1C1CCCC1` [Example 26, N-(4-{4-[(4-{[(7R)-8-Cyclopentyl-7-ethyl-5-methyl-6-oxo-5,6,7,8-tetrahydropteridin-2-yl]amino}-3-methoxybenzoyl)amino]phenyl}butanoyl)-L-leucine], with over 7.00; and `CC[C@@H]1C(=O)N(C)c2cnc(Nc3ccc(C(=O)NC4CCN(CCCCC(=O)N[C@@H](CC(C)C)C(=O)O)CC4)cc3OC)nc2N1C1CCCC1` [Example 23, N-(5-[4-[(4-{[(7R)-8-Cyclopentyl-7-ethyl-5-methyl-6-oxo-5,6,7,8-tetrahydropteridin-2-yl]amino}-3-methoxybenzoyl)amino]piperidin-1-yl]pentanoyl)-L-leucine], with over 7.00; and `CC[C@@H]1C(=O)N(C)c2cnc(Nc3ccc(CCCCCC(=O)N[C@@H](CC(C)C)C(=O)O)cc3F)nc2N1C1CCCC1` [Example 29, N-[6-(4-{[(7R)-8-Cyclopentyl-7-ethyl-5-methyl-6-oxo-5,6,7,8-tetrahydropteridin-2-yl]amino}-3-fluorophenyl)hexanoyl]-L-leucine], with over 7.00.
In the case of `CC[C@@H]1C(=O)N(C)c2cnc(Nc3ccc(C(=O)N[C@H]4CC[C@@H](CCC(=O)N[C@@H](CC(C)C)C(=O)O)CC4)cc3OC)nc2N1C1CCCC1` [Example 31, N-(3-{cis-4-[(4-{[(7R)-8-Cyclopentyl-7-ethyl-5-methyl-6-oxo-5,6,7,8-tetrahydropteridin-2-yl]amino}-3-methoxybenzoyl)amino]cyclohexyl}propanoyl)-L-leucine], the pIC50 in experiment [1] was over 7.00.
Still for that read-out and setting: the same measure for `CC[C@@H]1C(=O)N(C)c2cnc(Nc3ccc(C(=O)NC4CCN(CC(=O)N[C@@H](CC(C)C)C(=O)O)CC4)cc3OC)nc2N1C1CCCC1` [Example 24, N-({4-[(4-{[(7R)-8-Cyclopentyl-7-ethyl-5-methyl-6-oxo-5,6,7,8-tetrahydropteridin-2-yl]amino}-3-methoxybenzoyl)amino]piperidin-1-yl}acetyl)-L-leucine]: over 7.00.
Same read-out and setting: then `CC[C@@H]1C(=O)N(C)c2cnc(Nc3c(F)cc(/C=C/CCCC(=O)N[C@@H](CC(C)C)C(=O)O)cc3F)nc2N1C1CCCC1` [Example 30, N-[(5E)-6-(4-{[(7R)-8-Cyclopentyl-7-ethyl-5-methyl-6-oxo-5,6,7,8-tetrahydropteridin-2-yl]amino}-3,5-difluorophenyl)hex-5-enoyl]-L-leucine], with over 7.00; and `CC[C@@H]1C(=O)N(C)c2cnc(Nc3ccc(/C=C/CCCC(=O)N[C@@H](CC(C)C)C(=O)O)cc3F)nc2N1C1CCCC1` [Example 28, N-[(5E)-6-(4-{[(7R)-8-Cyclopentyl-7-ethyl-5-methyl-6-oxo-5,6,7,8-tetrahydropteridin-2-yl]amino}-3-fluorophenyl)hex-5-enoyl]-L-leucine], with over 7.00; and `CC[C@@H]1C(=O)N(C)c2cnc(Nc3ccc(C(=O)NC4CCN(CCCC(=O)N[C@@H](C(=O)O)c5ccccc5)CC4)cc3OC)nc2N1C1CCCC1` [Example 21, (2R)-[(4-{4-[(4-{[(7R)-8-Cyclopentyl-7-ethyl-5-methyl-6-oxo-5,6,7,8-tetrahydropteridin-2-yl]amino}-3-methoxybenzoyl)amino]piperidin-1-yl}butanoyl)amino](phenyl)acetic acid], with over 7.00.
With `CC[C@@H]1C(=O)N(C)c2cnc(Nc3ccc(C(=O)NCCCC(=O)N[C@@H](CC(C)C)C(=O)O)cc3OC)nc2N1C1CCCC1` [Example 27, N-{4-[(4-{[(7R)-8-Cyclopentyl-7-ethyl-5-methyl-6-oxo-5,6,7,8-tetrahydropteridin-2-yl]amino}-3-methoxybenzoyl)amino]butanoyl}-L-leucine], in experiment [1], the pIC50 is over 7.00.
The same measure, in the same setting: the same measure for `CC[C@@H]1C(=O)N(C)c2cnc(Nc3ccc(C(=O)NC4CCN(CCCC(=O)N[C@@H](CC(C)C)C(=O)O)CC4)cc3OC)nc2N1C1CCCC1` [Example 18, N-(4-{4-[(4-{[(7R)-8-Cyclopentyl-7-ethyl-5-methyl-6-oxo-5,6,7,8-tetrahydropteridin-2-yl]amino}-3-methoxybenzoyl)amino]piperidin-1-yl}butanoyl)-L-leucine]: over 7.00; for `CC[C@@H]1C(=O)N(C)c2cnc(Nc3ccc(C(=O)NC4CCN(CCCC(=O)N[C@@H](C(=O)O)C5CCCCC5)CC4)cc3OC)nc2N1C1CCCC1` [Example 22, (2R)-Cyclohexyl[(4-{4-[(4-{[(7R)-8-cyclopentyl-7-ethyl-5-methyl-6-oxo-5,6,78-tetrahydropteridin-2-yl]amino}-3-methoxybenzoyl)amino]piperidin-1-yl}butanoyl)amino]acetic acid]: over 7.00.
